Measured values from US20240132521A1, “COMPOUNDS AND METHODS FOR MODULATING HER2” (Iambic Therapeutics, Inc., priority 2022, published 2024).
Where a name gives a salt, the structure may show the parent alone. Read-outs that look alike come from different tables or passages of the source.

Key:
Type in all cases: cell-based
BaF3_EGFRWT cells = BaF3_EGFRWT cells (Homo sapiens, UniProt P00533); assay: Cell growth inhibition assay (CellTiterGlo), BaF3_EGFRWT
BaF3_HER2WT cells = BaF3_HER2WT cells (Homo sapiens, UniProt P04626); assay: Cell growth inhibition assay (CellTiterGlo), BaF3_HER2WT
Sequence of BaF3_HER2WT cells (P04626 whole entry, change not shown): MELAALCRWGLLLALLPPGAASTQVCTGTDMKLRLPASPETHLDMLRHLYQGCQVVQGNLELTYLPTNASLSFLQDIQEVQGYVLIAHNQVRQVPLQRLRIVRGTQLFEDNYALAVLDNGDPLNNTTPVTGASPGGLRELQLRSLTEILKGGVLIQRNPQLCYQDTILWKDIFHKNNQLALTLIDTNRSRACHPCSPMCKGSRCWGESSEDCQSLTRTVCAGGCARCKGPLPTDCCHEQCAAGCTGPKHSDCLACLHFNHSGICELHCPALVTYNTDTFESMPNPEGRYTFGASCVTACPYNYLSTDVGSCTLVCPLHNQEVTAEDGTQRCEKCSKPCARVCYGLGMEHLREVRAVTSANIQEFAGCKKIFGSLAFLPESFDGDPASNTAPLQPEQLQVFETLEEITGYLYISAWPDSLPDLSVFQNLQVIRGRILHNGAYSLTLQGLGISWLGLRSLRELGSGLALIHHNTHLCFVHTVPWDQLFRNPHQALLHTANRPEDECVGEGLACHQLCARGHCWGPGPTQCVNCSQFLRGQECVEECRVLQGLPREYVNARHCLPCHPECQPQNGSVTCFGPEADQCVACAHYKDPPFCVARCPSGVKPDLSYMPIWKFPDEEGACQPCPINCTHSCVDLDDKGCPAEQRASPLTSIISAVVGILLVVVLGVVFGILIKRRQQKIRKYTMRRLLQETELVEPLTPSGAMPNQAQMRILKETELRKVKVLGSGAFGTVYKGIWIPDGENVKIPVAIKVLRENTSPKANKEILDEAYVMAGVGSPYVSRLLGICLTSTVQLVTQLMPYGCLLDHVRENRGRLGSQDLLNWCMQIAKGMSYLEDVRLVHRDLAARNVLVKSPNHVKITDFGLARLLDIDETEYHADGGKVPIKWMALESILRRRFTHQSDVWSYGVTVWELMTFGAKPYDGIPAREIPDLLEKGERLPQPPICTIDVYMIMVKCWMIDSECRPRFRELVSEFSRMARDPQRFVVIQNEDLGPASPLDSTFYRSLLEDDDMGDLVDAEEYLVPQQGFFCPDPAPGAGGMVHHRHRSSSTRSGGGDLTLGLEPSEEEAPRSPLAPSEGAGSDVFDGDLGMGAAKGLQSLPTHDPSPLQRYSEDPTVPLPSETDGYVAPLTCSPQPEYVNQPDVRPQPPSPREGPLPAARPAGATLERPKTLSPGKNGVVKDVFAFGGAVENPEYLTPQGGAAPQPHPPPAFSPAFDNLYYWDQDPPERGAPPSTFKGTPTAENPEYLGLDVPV

BaF3_HER2YVMA cells = BaF3_HER2YVMA cells (Homo sapiens, UniProt P04626, DUP772-775, cells depend on it); assay: Cell growth inhibition assay (CellTiterGlo), BaF3_HER2YVMA
Sequence of BaF3_HER2YVMA cells (P04626 with tags, fused parts or gaps DUP772-775): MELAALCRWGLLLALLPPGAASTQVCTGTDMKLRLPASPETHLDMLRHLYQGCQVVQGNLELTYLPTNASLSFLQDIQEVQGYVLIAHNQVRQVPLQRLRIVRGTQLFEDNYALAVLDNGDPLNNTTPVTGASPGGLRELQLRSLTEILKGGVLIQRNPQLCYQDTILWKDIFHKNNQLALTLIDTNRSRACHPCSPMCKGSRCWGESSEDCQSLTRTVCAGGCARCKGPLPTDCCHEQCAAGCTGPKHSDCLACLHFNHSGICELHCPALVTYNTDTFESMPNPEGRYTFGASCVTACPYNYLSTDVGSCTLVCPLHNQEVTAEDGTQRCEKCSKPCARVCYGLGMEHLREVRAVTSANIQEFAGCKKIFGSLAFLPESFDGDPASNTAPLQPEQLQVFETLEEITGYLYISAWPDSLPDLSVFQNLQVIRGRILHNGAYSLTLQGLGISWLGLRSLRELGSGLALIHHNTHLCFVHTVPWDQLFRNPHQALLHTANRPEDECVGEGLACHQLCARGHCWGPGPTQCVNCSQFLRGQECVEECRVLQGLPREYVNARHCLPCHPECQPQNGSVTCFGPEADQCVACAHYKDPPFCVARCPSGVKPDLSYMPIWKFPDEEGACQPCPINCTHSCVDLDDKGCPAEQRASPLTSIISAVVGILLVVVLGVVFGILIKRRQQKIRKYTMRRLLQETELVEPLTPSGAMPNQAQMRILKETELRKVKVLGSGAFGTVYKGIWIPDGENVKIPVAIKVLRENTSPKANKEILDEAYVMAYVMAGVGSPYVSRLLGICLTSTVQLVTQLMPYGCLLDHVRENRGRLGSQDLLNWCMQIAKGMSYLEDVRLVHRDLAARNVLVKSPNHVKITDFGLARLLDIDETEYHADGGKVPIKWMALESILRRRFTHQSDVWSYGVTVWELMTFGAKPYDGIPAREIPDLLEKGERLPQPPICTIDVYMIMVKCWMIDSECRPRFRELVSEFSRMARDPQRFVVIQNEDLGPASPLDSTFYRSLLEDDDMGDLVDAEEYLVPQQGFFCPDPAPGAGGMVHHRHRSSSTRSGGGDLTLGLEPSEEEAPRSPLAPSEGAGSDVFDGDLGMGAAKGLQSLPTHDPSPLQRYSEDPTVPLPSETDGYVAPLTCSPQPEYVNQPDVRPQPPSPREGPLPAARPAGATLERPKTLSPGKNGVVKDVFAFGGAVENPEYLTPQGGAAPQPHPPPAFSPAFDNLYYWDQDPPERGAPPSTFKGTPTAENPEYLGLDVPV

[1] = 3-day treatment, CellTiterGlo, read-out: Cell growth inhibition activity, EGFR WT
[2] = 3-day treatment, CellTiterGlo, read-out: Cell growth inhibition activity, HER2 WT
[3] = cell growth inhibition, 80 ng/mL EGF, 3 days treatment, read-out: EGFR WT IC50
[4] = cell growth inhibition, 3 days treatment, read-out: HER2 WT IC50
[5] = cell growth inhibition, 3 days treatment, read-out: HER2 - YVMA IC50

Sequence of BaF3_EGFRWT cells (P00533 whole entry, change not shown): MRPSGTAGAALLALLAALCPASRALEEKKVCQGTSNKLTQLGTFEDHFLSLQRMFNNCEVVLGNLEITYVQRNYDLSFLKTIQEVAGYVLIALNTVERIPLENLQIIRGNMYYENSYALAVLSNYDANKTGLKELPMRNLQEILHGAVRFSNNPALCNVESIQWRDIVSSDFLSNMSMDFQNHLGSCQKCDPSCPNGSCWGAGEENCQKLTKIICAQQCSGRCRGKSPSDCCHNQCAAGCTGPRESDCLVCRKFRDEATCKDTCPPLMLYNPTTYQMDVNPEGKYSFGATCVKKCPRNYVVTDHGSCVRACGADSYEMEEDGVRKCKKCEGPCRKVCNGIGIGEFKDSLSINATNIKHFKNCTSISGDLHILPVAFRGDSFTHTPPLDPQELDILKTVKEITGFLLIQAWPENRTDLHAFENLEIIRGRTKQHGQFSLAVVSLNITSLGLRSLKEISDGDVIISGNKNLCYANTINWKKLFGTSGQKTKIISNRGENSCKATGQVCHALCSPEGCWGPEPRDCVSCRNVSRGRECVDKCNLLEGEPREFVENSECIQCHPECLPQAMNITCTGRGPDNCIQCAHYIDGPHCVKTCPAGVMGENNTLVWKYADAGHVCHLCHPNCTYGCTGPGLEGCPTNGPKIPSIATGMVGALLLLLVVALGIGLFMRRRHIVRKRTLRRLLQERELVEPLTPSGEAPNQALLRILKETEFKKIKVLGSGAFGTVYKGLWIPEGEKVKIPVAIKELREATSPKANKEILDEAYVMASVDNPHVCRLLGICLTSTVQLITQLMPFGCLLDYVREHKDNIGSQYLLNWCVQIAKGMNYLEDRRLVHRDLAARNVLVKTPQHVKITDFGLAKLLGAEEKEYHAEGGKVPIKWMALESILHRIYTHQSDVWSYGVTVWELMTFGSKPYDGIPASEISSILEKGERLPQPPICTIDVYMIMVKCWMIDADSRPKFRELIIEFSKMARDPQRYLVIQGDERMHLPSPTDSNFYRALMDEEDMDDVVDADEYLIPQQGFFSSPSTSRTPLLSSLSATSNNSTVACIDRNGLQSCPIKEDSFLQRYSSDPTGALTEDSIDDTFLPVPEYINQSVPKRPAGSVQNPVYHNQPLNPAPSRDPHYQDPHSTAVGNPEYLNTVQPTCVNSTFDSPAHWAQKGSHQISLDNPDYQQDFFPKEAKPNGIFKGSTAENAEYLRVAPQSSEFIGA

Row | SMILES | GI50 (BaF3_EGFRWT cells; [1]) | GI50 (BaF3_HER2WT cells; [2]) | GI50 (BaF3_EGFRWT cells; [3]) | other results
1 | COC1CCN(C/C=C/C(=O)N2CCC(c3ccn4ncnc(Nc5ccc(Oc6ccc7c(c6)ncn7C)c(C)c5)c34)CC2)C1 (racemic) [Example 106, (E)-4-(3-methoxypyrrolidin-1-yl)-1-(4-(4-((3-methyl-4-((1-methyl-1H-benzo[d]imidazol-5-yl)oxy)phenyl)amino)pyrrolo[2,1-f][1,2,4]triazin-5-yl)piperidin-1-yl)but-2-en-1-one] | 1.5 to 5 µM | – | – | –
2 | Cc1cc(Nc2ncnn3ccc(C4CCN(C(=O)/C=C/CN(C)C)C4)c23)ccc1Oc1ccn2ncnc2c1 (single isomer, unassigned) [Examples 99 and 100, second eluting isomer, (E)-1-(3-(4-((4-([1,2,4]triazolo[1,5-a]pyridin-7-yloxy)-3-methylphenyl)amino)pyrrolo[2,1-f][1,2,4]triazin-5-yl)pyrrolidin-1-yl)-4-(dimethylamino)but-2-en-1-one] | – | – | 1.5 to 5 µM | GI50 (BaF3_HER2WT cells; [4]): < 200 nM; GI50 (BaF3_HER2YVMA cells; [5]): 500 to 1500 nM
3 | C=CC(=O)N1CCCC(c2ccn3ncnc(Nc4ccc(Oc5ccn6ncnc6c5)c(C)c4)c23)CC1 (single isomer, unassigned) [Examples 111 and 112, second eluting isomer, 1-(4-(4-((4-([1,2,4]triazolo[1,5-a]pyridin-7-yloxy)-3-methylphenyl)amino)pyrrolo-[2,1-f][1,2,4]triazin-5-yl)azepan-1-yl)prop-2-en-1-one] | – | – | 1.5 to 5 µM | –
4 | Cc1cc(Nc2ncnn3ccc(C(=O)NCCCN(C)C)c23)ccc1Oc1ccn2ncnc2c1 [Example 179, 4-((4-([1,2,4]triazolo[1,5-a]pyridin-7-yloxy)-3-methylphenyl)amino)-N-(3-(dimethylamino)-propyl)pyrrolo[2,1-f][1,2,4]triazine-5-carboxamide hydrochloride] | > 5 µM | 200 to 500 nM | – | –

Further lines, with some results ahead:

Row | GI50 (BaF3_EGFRWT cells; [1]) | GI50 (BaF3_HER2WT cells; [2]) | GI50 (BaF3_EGFRWT cells; [3]) | SMILES | other results
5 | 1.5 to 5 µM | 500 to 1500 nM | – | C=CC(=O)N1C[C@H]2C[C@@H]1C[C@H]2c1ccn2ncnc(Nc3ccc(Oc4ccn5ncnc5c4)c(C)c3)c12 (relative stereo) [Example 104, Rel-1-1(1S,4S,5R)-5-{4-[(3-methyl-4-{[1,2,4]triazolo[1,5-a]pyridin-7-yloxy}phenyl)amino]pyrrolo[2,1-f][1,2,4]triazin-5-yl}-2-azabicyclo[2.2.1]heptan-2-yl]prop-2-en-1-one] | GI50 (BaF3_HER2YVMA cells; 3-day treatment, CellTiterGlo, read-out: Cell growth inhibition activity, HER2 - YVMA): 1500 to 5000 nM
6 | – | – | 1.5 to 5 µM | Cc1cc(Nc2ncnn3ccc(C4CCN(C(=O)/C=C/CN(C)C)C4)c23)ccc1Oc1ccn2ncnc2c1 (single isomer, unassigned) [Examples 99 and 100, first eluting isomer, (E)-1-(3-(4-((4-([1,2,4]triazolo[1,5-a]pyridin-7-yloxy)-3-methylphenyl)amino)pyrrolo[2,1-f][1,2,4]triazin-5-yl)pyrrolidin-1-yl)-4-(dimethylamino)but-2-en-1-one] | GI50 (BaF3_HER2WT cells; [4]): < 200 nM; GI50 (BaF3_HER2YVMA cells; [5]): < 200 nM
7 | 1.5 to 5 µM | – | – | Cc1cc(Nc2ncnn3ccc(C4CCN(C(=O)/C=C/CN(C)C)CC4)c23)ccc1Oc1ccn2ncnc2c1 [Example 21, (E)-1-(4-(4-((4-([1,2,4]triazolo[1,5-a]pyridin-7-yloxy)-3-methylphenyl)amino)pyrrolo[2,1-f][1,2,4]triazin-5-yl)piperidin-1-yl)-4-(dimethylamino)but-2-en-1-one] | –
8 | 1.5 to 5 µM | < 200 nM | – | COC1CN(C/C=C/C(=O)N2CC(c3ccn4ncnc(Nc5ccc(Oc6ccn7ncnc7c6)c(C)c5)c34)C2)C1 [Example 39, (E)-1-(3-(4-((4-([1,2,4]triazolo[1,5-a]pyridin-7-yloxy)-3-methylphenyl)amino)pyrrolo[2,1-f][1,2,4]triazin-5-yl)azetidin-1-yl)-4-(3-methoxyazetidin-1-yl)but-2-en-1-one] | –
